How the values were obtained:
[1] = molecular target: Angiotensin-converting enzyme (Homo sapiens, UniProt P12821); experiment: Inhibition of Angiotensin I converting enzyme; details: read-out: I50
Neprilysin = Neprilysin (Homo sapiens, UniProt P08473); experiment: Inhibition of Neutral Endopeptidase (NEP); details: read-out: I50
Rattus norvegicus [2] = experiment: Compound was tested in vivo for inhibition of Angiotensin I(AI) induced pressor response in normotensive rat after iv administration; format: functional
Rattus norvegicus [3] = experiment: Maximal percentage inhibition of Angiotensin I(AI) induced pressor response in normotensive rat at 0.15 (umol/kg) (iv); format: functional

Neprilysin, sequence (P08473 whole entry): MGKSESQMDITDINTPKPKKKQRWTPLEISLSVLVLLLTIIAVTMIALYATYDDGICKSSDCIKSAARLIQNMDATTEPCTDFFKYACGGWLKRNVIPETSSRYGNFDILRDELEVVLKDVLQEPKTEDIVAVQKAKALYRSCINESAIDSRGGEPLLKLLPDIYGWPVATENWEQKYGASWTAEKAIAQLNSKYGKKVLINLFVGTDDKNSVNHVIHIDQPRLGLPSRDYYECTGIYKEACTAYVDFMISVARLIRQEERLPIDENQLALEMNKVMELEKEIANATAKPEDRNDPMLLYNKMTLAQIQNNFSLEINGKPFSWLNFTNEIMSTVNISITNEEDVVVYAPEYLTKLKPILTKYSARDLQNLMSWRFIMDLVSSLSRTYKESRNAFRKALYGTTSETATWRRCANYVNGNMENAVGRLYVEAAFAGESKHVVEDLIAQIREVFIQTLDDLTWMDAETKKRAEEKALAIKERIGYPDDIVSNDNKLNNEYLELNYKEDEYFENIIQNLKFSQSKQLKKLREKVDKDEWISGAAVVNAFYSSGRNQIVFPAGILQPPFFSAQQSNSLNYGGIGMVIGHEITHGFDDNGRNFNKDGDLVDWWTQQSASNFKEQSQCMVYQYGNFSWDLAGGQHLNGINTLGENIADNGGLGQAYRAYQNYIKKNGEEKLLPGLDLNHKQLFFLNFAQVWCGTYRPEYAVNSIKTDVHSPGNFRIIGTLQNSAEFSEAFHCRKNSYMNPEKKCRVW
Angiotensin-converting enzyme, sequence (P12821 whole entry): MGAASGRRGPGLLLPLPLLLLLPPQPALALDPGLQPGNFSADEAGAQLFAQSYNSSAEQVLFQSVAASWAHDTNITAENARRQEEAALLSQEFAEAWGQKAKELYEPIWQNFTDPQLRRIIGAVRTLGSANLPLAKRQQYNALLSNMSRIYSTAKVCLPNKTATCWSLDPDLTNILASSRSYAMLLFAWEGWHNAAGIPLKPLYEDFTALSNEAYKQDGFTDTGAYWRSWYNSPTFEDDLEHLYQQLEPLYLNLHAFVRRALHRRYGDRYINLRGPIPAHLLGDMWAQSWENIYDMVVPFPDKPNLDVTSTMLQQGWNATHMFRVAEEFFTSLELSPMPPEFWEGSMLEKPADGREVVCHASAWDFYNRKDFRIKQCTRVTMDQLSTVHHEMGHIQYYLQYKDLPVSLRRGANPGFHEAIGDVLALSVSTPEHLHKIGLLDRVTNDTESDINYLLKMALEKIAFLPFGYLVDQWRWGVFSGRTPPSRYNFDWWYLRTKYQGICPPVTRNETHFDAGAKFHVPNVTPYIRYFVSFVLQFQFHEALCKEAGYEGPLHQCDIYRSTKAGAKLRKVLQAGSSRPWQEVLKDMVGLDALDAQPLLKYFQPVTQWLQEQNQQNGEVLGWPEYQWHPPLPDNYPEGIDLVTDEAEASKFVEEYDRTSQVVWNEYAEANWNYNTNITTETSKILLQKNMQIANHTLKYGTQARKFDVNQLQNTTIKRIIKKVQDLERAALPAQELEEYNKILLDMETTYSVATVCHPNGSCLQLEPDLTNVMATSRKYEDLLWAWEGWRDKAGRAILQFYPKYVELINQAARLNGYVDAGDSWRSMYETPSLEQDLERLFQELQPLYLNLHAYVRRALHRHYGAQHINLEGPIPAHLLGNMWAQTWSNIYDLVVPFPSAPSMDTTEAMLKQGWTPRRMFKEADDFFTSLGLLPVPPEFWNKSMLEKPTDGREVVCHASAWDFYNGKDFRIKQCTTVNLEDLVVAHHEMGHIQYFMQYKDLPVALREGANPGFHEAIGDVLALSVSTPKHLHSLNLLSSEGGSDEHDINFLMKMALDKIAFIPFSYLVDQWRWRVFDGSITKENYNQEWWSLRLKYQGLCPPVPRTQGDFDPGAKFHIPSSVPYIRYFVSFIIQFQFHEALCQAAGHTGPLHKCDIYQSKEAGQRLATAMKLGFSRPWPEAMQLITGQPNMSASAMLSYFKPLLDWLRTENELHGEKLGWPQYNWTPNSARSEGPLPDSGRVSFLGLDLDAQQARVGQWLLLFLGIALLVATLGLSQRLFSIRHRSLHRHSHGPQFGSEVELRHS

IC50 [1] | IC50 (Neprilysin) | SMILES | ED50 (Rattus norvegicus [2]) | Inhibition (Rattus norvegicus [3])
22 nM | 82 nM | O=C(O)CN1CCCC[C@H](NC(=O)[C@@H](S)Cc2ccccc2)C1=O | 0.83 µmol/kg | –
22 nM | 4260 nM | O=C(O)CN1C(=O)[C@@H](NC(=O)[C@@H](S)CC2CCCCC2)CCc2ccccc21 | – | –
– | 6 nM | O=C(O)CN1C(=O)[C@@H](NC(=O)[C@@H](S)Cc2ccccc2)CCc2ccccc21 | 0.02 µmol/kg | –
5.4 nM | 36 nM | CCCC[C@H](S)C(=O)N[C@H]1CCc2ccccc2N(CC(=O)O)C1=O | 0.06 µmol/kg | –
14 nM | 137 nM | C[C@H](NC(=O)[C@@H](S)Cc1ccccc1)C(=O)N(CC(=O)O)c1ccccc1 | 0.15 µmol/kg | 42%
6.3 nM | 7 nM | CC(C)C[C@H](S)C(=O)N[C@H]1CCc2ccccc2N(CC(=O)O)C1=O | 0.23 µmol/kg | –
284 nM | 14 nM | O=C(O)CN1C(=O)[C@@H](NC(=O)[C@H](S)Cc2ccccc2)CCc2ccccc21 | – | –
306 nM | 560 nM | O=C(O)CN1C(=O)[C@H](NC(=O)[C@@H](S)Cc2ccccc2)CCc2ccccc21 | – | –
24 nM | 1850 nM | C[C@H](S)C(=O)N[C@H]1CCc2ccccc2N(CC(=O)O)C1=O | – | –
25 nM | 1120 nM | O=C(O)CN1C(=O)C(NC(=O)[C@@H](S)Cc2ccccc2)CCCc2ccccc21 (stereo partly specified) | – | –
33 nM | 175 nM | O=C(O)CN1Cc2ccccc2C[C@H](NC(=O)[C@@H](S)Cc2ccccc2)C1=O | – | –
183 nM | 865 nM | CC(S)(Cc1ccccc1)C(=O)N[C@H]1CCc2ccccc2N(CC(=O)O)C1=O (stereo in doubt; form 1) | – | –
63 nM | 2000 nM | CC(S)(Cc1ccccc1)C(=O)N[C@H]1CCc2ccccc2N(CC(=O)O)C1=O (stereo in doubt; form 2) | – | –
